Experimental data taken from ChEMBL document CHEMBL1150750, “Modified taxols, 4. Synthesis and biological activity of taxols modified in the side chain” (J Nat Prod, 1988).
≈ marks a conversion by molar mass, not a printed value.

Legend:
KB = experiment: Cytotoxicity against human KB cells; format: functional; settings: for EC50: Homo sapiens, KB, read-out: ED50 (the source's name)
P388 [1] = experiment: In vivo cytotoxicity against mouse P388 cells at 22 mg/kg; format: functional
P388 [2] = experiment: In vivo cytotoxicity against mouse P388 cells at 44 mg/kg; format: functional
P388 [3] = experiment: In vivo cytotoxicity against mouse P388 cells at 11 mg/kg; format: functional
P388 [4] = experiment: In vivo cytotoxicity against mouse P388 cells at 20 mg/kg; format: functional
P388 [5] = experiment: In vivo cytotoxicity against mouse P388 cells at 5 mg/kg; format: functional
P388 [6] = experiment: In vivo cytotoxicity against mouse P388 cells at 10 mg/kg; format: functional
P388 [7] = experiment: In vivo cytotoxicity against mouse P388 cells at 2.5 mg/kg; format: functional
P388 [8] = experiment: In vivo cytotoxicity against mouse P388 cells at 40 mg/kg; format: functional
[9] = Chemical stability assessed as decomposition to taxol at pH 6.6 after 20 hrs; format: physicochemical; settings: buffer, pH 6.6, 20 h
[10] = Solubility in water by HPLC method; format: physicochemical
[11] = Stability in water assessed as decomposition to taxol after 24 hrs; format: physicochemical; settings: buffer
P388 [12] = experiment: In vivo cytotoxicity against mouse P388 cells at 13 mg/kg; format: functional
P388 [13] = experiment: In vivo cytotoxicity against mouse P388 cells at 26 mg/kg; format: functional
P388 [14] = experiment: In vivo cytotoxicity against mouse P388 cells at 6.5 mg/kg; format: functional
P388 [15] = experiment: In vivo cytotoxicity against mouse P388 cells at 3.25 mg/kg; format: functional

| Compound | EC50 (KB) [µg/mL] | ED50 (KB) | T/C (P388 [4]) [%] | T/C (P388 [6]) [%] | further results |
| --- | --- | --- | --- | --- | --- |
| CC(=O)O[C@H]1C(=O)[C@@]2(C)[C@H]([C@H](OC(=O)c3ccccc3)[C@]3(O)C[C@H](OC(=O)[C@H](OC(=O)CCC(=O)O)[C@@H](NC(=O)c4ccccc4)c4ccccc4)C(C)=C1C3(C)C)[C@]1(OC(C)=O)CO[C@@H]1C[C@@H]2O | 0.01 (≈ 0.0105 µM) | – | – | – | T/C (P388 [1]): 122%; T/C (P388 [2]): 129%; T/C (P388 [3]): 112% |
| CC(=O)O[C@H]1C(=O)[C@@]2(C)[C@H]([C@H](OC(=O)c3ccccc3)[C@]3(O)C[C@H](OC(=O)[C@H](OC(C)=O)[C@@H](NC(=O)c4ccccc4)c4ccccc4)C(C)=C1C3(C)C)[C@]1(OC(C)=O)CO[C@@H]1C[C@@H]2O | – | 2 ×10⁻⁵ ug/ml | 140 | 130 | T/C (P388 [5]): 127%; T/C (P388 [7]): 127% |
| CC(=O)O[C@H]1C(=O)[C@]2(C)[C@@H](OC(C)=O)C[C@H]3OC[C@@]3(OC(C)=O)[C@H]2[C@H](OC(=O)c2ccccc2)[C@]2(O)C[C@H](OC(=O)[C@H](OC(C)=O)[C@@H](NC(=O)c3ccccc3)c3ccccc3)C(C)=C1C2(C)C | 0.2 (≈ 0.213 µM) | – | 100 | 105 | T/C (P388 [8]): 104% |
| CC(=O)O[C@H]1C(=O)[C@@]2(C)[C@H]([C@H](OC(=O)c3ccccc3)[C@]3(O)C[C@H](OC(=O)[C@H](OC(=O)CCN)[C@@H](NC(=O)c4ccccc4)c4ccccc4)C(C)=C1C3(C)C)[C@]1(OC(C)=O)CO[C@@H]1C[C@@H]2O.O=CO | – | 2 ×10⁻⁴ ug/ml | 130 | 117 | Stability [9]: Unstable; solubility [10]: 2200 µg/mL; Stability [11]: 90%; T/C (P388 [8]): 140% |
| CC(=O)O[C@H]1C(=O)[C@@]2(C)[C@H]([C@H](OC(=O)c3ccccc3)[C@]3(O)C[C@H](OC(=O)[C@H](O[Si](C)(C)C(C)(C)C)[C@H](NC(=O)c4ccccc4)c4ccccc4)C(C)=C1C3(C)C)[C@]1(OC(C)=O)CO[C@@H]1C[C@@H]2O | 0.3 (≈ 0.31 µM) | – | – | – | – |
| CC(=O)O[C@H]1C(=O)[C@@]2(C)[C@H]([C@H](OC(=O)c3ccccc3)[C@]3(O)C[C@H](OC(=O)[C@H](OC(=O)CCNC(=O)OCc4ccccc4)[C@@H](NC(=O)c4ccccc4)c4ccccc4)C(C)=C1C3(C)C)[C@]1(OC(C)=O)CO[C@@H]1C[C@@H]2O | – | 1 ×10⁻⁴ ug/ml | – | – | – |
| CC(=O)O[C@H]1C(=O)[C@@]2(C)[C@H]([C@H](OC(=O)c3ccccc3)[C@]3(O)C[C@H](OC(=O)[C@@H]4OC(=O)N(C(=O)c5ccccc5)[C@H]4c4ccccc4)C(C)=C1C3(C)C)[C@]1(OC(C)=O)CO[C@@H]1C[C@@H]2O | 0.2 (≈ 0.227 µM) | – | – | – | – |
| CC(=O)O[C@H]1C(=O)[C@]2(C)[C@@H](OC(C)=O)C[C@H]3OC[C@@]3(OC(C)=O)[C@H]2[C@H](OC(=O)c2ccccc2)[C@]2(O)C[C@H](OC(=O)[C@H](O)[C@@H](NC(=O)c3ccccc3)c3ccccc3)C(C)=C1C2(C)C [PACLITAXEL C7 ACETYLCARBOXYLIC ACID ESTER] | 0.004 (≈ 0.00446 µM) | – | – | – | T/C (P388 [12]): 127%; T/C (P388 [13]): 130%; T/C (P388 [14]): 124%; T/C (P388 [15]): 128% |
| CC(=O)O[C@H]1C(=O)[C@@]2(C)[C@H]([C@H](OC(=O)c3ccccc3)[C@]3(O)C[C@H](OC(=O)[C@H](O)[C@@H](NC(=O)c4ccccc4)c4ccccc4)C(C)=C1C3(C)C)[C@]1(OC(C)=O)CO[C@@H]1C[C@@H]2O [PACLITAXEL] | – | 1 ×10⁻⁵ ug/ml | 104 | 137 | T/C (P388 [5]): 156%; T/C (P388 [7]): 147% |
